“And” between values parts separate entries of the source, which are not always exact repeats. Equal entries are not always repeated. Where two headings read alike, the source gives them in different places.
Columns and labels:
[1] = system: GlyRα1; settings: cited from earlier work; for GlyRα1 Potentiation at EC5 (%): % stimulation of glycine EC5 caused by 1 µM lipid
[2] = target: T1, GlyRα1 (Homo sapiens, UniProt P23415); test: Two-electrode voltage clamp, Xenopus laevis oocytes expressing GlyRα1 alone; assay type: cell-based; settings: for nH of glycine dose-response in the presence of lipid: 1 µM lipid, fast-flow
T1 construct: expressed in transfected cells; host or cells: Xenopus laevis oocytes (cRNA injection)
T1 sequence (P23415 29-457): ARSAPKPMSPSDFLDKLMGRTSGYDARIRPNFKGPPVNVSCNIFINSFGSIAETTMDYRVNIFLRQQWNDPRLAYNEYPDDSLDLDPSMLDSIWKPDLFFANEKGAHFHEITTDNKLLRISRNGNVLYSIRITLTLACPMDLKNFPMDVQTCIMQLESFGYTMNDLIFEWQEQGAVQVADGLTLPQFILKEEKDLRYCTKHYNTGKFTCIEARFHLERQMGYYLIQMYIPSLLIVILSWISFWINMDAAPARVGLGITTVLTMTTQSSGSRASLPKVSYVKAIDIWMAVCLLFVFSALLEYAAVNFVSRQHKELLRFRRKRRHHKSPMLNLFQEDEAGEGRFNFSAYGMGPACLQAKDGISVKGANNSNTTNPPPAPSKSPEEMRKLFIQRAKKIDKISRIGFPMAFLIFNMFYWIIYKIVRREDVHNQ
From the text: (§1) Human GlyT1b and GlyT2a WT cDNA were subcloned into the plasmid oocyte transcription vector (pOTV) and human GlyRα1, GlyRα3 and GlyRβ into pGEMHE. GlyR cDNA pGEMHE vectors were provided by Mary Collins at the University of Sydney (Sydney, Australia). Single point mutations were introduced into GlyRα1 using the Q5 site-directed mutagenesis kit (New England Biolabs (Genesearch), Arundel, Australia) with oligonucleotide primers (Merck, Sydney, Australia) containing the desired mutations. The amplified cDNA/pOTV or cDNA/pGEMHE product was then transformed in E. coli cells, and subsequently purified using the PureLink Quick Plasmid Miniprep Kit (Invitrogen by Life Technologies, Löhne, Germany), and sequenced by the Australian Genome Research Facility (Sydney, Australia). The purified plasmid DNA was linearised via the restriction enzyme, SpeI (New England Biolabs (Genesearch), Arundel, Australia) for GlyT1b and GlyT2a (henceforth referred to as GlyT1 and GlyT2 respectively) and NheI (New England Biolabs (Genesearch)) for GlyRα1, GlyRα3 and GlyRβ. Complementary RNAs were synthesised using the mMESAGE mMACHINE T7 kit (Ambion, Austin, TX, USA).
(§2) All work involving the use of animals was performed in accordance with the Australian Code of Practice for the Care and Use of Animals for Scientific Purposes and approved by the University of Sydney Animal Ethics Committee (Approval numbers 2016/970 and 2020/1704). […] The oocytes were then stored in frog Ringer’s solution (96 mM NaCl, 2 mM KCl, 1 mM MgCl2, 1.8 mM CaCl2, 5 mM HEPES, pH 7.5) which was supplemented with 2.5 mM sodium pyruvate, 0.5 mM theophylline, 50 μg/mL gentamicin and […] tetracycline. The oocytes were stored at 18 °C for 3–5 days, until transporter and receptor expression were adequate for measurement using the two-electrode voltage clamp technique.
(§3) GlyT1, GlyT2, GlyRα1, GlyRα3, GlyRα1β and GlyRα3β are electrogenic, allowing activation to be measured via the two-electrode voltage clamp technique. Oocytes were voltage clamped at −60 mV, and whole-cell currents generated by the substrate were recorded with a Geneclamp 500 amplifier (Axon Instruments, Foster City, CA, USA), digitised by a Powerlab 2/20 chart recorder (ADInstruments, Sydney, Australia). LabChart version 8 software (ADInstruments, Sydney, Australia) was used to visualise and process current traces. Recordings were performed in frog Ringer’s solution, except for low Na^+ experiments where Na^+ was replaced with choline. Oocytes were placed in an oval-shaped bath with a volume of 0.3 mL, with laminar flow around the oocyte at a rate of 12 mL min^−1 under gravity feed.
(§4) Varying concentrations of substrate or agonist were applied to cells in ND96.
Flow of the solution was stopped until the current plateaued, by manually closing a three-way valve on one end of the bath such that the solution in the bath was static and is referred to henceforth as ‘stop-flow’.

[3] = system: GlyT2; settings: cited from earlier work; for GlyT2 Activity: % Inhibition (1 µM): 1 µM lipid, inhibition of glycine transport; for IC50: inhibition of glycine transport by GlyT2; for GlyT2 Activity: Max inhibition (%): maximal level of inhibition observed
[4] = system: GlyRα1-mCherry; settings: read-out: Glycine EC50; tagged receptor alone
Procedure: (§5) The oocytes were then stored in frog Ringer’s solution (96 mM NaCl, 2 mM KCl, 1 mM MgCl2, 1.8 mM CaCl2, 5 mM HEPES, pH 7.5) which was supplemented with 2.5 mM sodium pyruvate, 0.5 mM theophylline, 50 μg/mL gentamicin and 100 μM mL^−1 tetracycline. The oocytes were stored at 18 °C for 3–5 days, until transporter and receptor expression were adequate for measurement using the two-electrode voltage clamp technique.

[5] = system: GlyRα1/GlyT2; test: Two-electrode voltage clamp, oocytes co-expressing GlyRα1/GlyT2; assay type: cell-based, human
From the text: as §1, §2, §3
Varying concentrations of substrate or agonist were applied to cells in ND96. […]

[6] = system: GlyRα1; settings: cited from earlier work
[7] = system: GlyT2-GFP; settings: read-out: Glycine EC50; tagged transporter alone
Procedure: as §5

[8] = target: GlyRα3β/GlyT2 (Homo sapiens, UniProt O75311+P48167); settings: read-out: Fast-Flow Glycine EC50
Sequence of GlyRα3β/GlyT2 (O75311 34-464): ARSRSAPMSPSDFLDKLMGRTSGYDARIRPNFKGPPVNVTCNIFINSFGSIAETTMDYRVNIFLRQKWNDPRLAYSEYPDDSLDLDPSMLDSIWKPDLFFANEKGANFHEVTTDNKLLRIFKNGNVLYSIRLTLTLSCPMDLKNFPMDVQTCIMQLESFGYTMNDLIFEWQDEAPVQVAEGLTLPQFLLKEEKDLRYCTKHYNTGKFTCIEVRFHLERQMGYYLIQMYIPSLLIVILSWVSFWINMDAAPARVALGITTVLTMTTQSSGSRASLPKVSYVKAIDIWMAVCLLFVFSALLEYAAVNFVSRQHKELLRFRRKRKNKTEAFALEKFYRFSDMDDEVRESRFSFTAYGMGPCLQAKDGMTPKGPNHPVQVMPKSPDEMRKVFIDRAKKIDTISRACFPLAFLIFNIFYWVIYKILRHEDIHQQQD
Sequence of GlyRα3β/GlyT2 (P48167 23-497): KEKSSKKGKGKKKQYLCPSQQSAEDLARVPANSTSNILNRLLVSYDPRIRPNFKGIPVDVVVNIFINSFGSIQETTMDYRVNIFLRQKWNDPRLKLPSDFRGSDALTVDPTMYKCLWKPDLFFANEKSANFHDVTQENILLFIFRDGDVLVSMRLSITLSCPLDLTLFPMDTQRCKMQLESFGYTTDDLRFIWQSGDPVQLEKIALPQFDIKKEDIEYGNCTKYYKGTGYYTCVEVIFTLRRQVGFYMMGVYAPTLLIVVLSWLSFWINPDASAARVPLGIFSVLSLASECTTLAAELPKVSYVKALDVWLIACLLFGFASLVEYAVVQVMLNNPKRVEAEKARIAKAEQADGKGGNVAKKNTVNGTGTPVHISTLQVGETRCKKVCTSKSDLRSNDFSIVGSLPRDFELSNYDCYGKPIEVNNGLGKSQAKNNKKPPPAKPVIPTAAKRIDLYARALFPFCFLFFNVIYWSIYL
From the text: (§6) Human GlyT1b and GlyT2a WT cDNA were subcloned into the plasmid oocyte transcription vector (pOTV) and human GlyRα1, GlyRα3 and GlyRβ into pGEMHE. […] Single point mutations were introduced into GlyRα1 using the Q5 site-directed mutagenesis kit (New England Biolabs (Genesearch), Arundel, Australia) with oligonucleotide primers (Merck, Sydney, Australia) containing the desired mutations. […] The purified plasmid DNA was linearised via the restriction enzyme, SpeI (New England Biolabs (Genesearch), Arundel, Australia) for GlyT1b and GlyT2a (henceforth referred to as GlyT1 and GlyT2 respectively) and NheI (New England Biolabs (Genesearch)) for GlyRα1, GlyRα3 and GlyRβ. Complementary RNAs were synthesised using the mMESAGE mMACHINE T7 kit (Ambion, Austin, TX, USA). […]
(§7) GlyT1, GlyT2, GlyRα1, GlyRα3, GlyRα1β and GlyRα3β are electrogenic, allowing activation to be measured via the two-electrode voltage clamp technique. Oocytes were voltage clamped at −60 mV, and whole-cell currents generated by the substrate were recorded with a Geneclamp 500 amplifier (Axon Instruments, Foster City, CA, USA), digitised by a Powerlab 2/20 chart recorder (ADInstruments, Sydney, Australia). […]

[9] = target: GlyRα3β/GlyT1 (Homo sapiens, UniProt O75311+P48167); settings: read-out: Fast-Flow Glycine EC50
Sequence of GlyRα3β/GlyT1 (O75311 34-464): as the sequence (O75311 34-464) above
Sequence of GlyRα3β/GlyT1 (P48167 23-497): as the sequence (P48167 23-497) above
From the text: as §6, §7

[10] = target: GlyRα3 (Homo sapiens, UniProt O75311); settings: read-out: Fast-Flow Glycine EC50
Sequence of GlyRα3 (O75311 34-464): as the sequence (O75311 34-464) above
From the text: as §1, §2, §3, §4

[11] = target: GlyRα3/GlyT2 (Homo sapiens, UniProt O75311); settings: read-out: Fast-Flow Glycine EC50
Sequence of GlyRα3/GlyT2 (O75311 34-464): as above
From the text: as §1, §2, §3, §4

[12] = target: GlyT2 (Homo sapiens, UniProt Q9Y345); settings: read-out: glycine EC50 (transport current); GlyT2 expressed alone
Sequence of GlyT2 (Homo sapiens, UniProt Q9Y345) (Q9Y345 whole entry): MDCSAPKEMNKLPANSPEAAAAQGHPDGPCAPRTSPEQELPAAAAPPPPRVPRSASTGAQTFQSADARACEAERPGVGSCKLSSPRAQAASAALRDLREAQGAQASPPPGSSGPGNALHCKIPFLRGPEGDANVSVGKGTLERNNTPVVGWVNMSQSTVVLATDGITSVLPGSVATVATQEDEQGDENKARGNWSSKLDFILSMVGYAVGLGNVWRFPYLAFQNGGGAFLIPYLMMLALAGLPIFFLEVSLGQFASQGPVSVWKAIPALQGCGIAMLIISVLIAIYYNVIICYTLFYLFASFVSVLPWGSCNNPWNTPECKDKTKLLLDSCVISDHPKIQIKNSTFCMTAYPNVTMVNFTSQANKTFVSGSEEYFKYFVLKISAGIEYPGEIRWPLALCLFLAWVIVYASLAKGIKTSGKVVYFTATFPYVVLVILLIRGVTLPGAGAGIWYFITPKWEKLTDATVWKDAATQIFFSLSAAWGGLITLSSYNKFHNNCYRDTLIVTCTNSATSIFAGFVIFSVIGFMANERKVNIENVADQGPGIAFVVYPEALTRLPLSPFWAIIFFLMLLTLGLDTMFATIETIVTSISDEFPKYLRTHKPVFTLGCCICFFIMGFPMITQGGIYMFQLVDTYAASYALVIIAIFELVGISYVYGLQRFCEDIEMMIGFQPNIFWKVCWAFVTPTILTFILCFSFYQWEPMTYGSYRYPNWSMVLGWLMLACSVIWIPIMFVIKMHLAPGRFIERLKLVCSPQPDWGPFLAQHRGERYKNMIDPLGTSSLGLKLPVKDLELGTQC
From the text: as §1, §2, §3, §4

[13] = target: GlyRα3/GlyT1 (Homo sapiens, UniProt O75311); settings: read-out: Fast-Flow Glycine EC50
Sequence of GlyRα3/GlyT1 (O75311 34-464): as the sequence (O75311 34-464) above
From the text: as §1, §2, §3, §4

[14] = target: GlyT1 (Homo sapiens, UniProt P48067); settings: read-out: glycine EC50 (transport current); GlyT1 expressed alone
Sequence of GlyT1 (P48067 1-652 isoform P48067-3): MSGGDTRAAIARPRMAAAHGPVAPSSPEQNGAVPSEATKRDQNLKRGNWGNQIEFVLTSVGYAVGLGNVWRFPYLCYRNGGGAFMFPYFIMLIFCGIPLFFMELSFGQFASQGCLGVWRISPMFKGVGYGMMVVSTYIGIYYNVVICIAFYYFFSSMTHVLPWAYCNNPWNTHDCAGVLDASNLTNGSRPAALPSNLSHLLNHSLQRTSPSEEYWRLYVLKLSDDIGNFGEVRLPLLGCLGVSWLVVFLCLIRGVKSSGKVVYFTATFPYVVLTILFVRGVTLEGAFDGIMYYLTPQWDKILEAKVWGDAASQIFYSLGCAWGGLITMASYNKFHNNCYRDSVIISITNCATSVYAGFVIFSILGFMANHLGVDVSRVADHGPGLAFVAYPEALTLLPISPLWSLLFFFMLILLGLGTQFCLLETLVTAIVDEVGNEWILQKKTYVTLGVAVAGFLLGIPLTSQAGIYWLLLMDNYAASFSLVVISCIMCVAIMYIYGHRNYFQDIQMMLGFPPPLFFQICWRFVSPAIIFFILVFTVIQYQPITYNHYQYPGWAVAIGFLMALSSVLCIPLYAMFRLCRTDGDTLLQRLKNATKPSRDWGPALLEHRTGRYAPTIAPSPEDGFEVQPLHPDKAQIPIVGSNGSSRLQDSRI
From the text: as §1, §2, §3, §4

CCCCCCCC/C=C\CCCCCCCC(=O)NCC(=O)O [C18-cis-ω9-glycine]
GlyRα1 Potentiation at EC5 (%) [1]: 84.7 ± 14.0%
GlyRα1 Potentiation at EC5 (%) ([1]; listed as 18-cis-ω9-glycine): 84.7 ± 14.0 (8) %
effect on Imax of GlyRα1 ([1]; dose-dependent): increases
effect on glycine EC50 of GlyRα1 ([1]; dose-dependent): decreases
nH of glycine dose-response in the presence of lipid [2]: 2.4 ± 0.2 ns
GlyT2 Activity: % Inhibition (1 µM) [3]: 50.1 ± 0.06%
GlyT2 Activity: % Inhibition (1 µM) ([3]; listed as 18-cis-ω9-glycine): 89.6 ± 0.01%
IC50 [3]: 31 nM
GlyT2 Activity: Max inhibition (%) [3]: 95.0%

NCC(=O)O [glycine]
EC50 [4]: 15.7 µM
EC50 ([5]; read-out: Fast-Flow Glycine EC50): 30.9 µM and 41.6 µM and 34.1 µM and 27.9 µM and 27.3 µM
EC50 ([5]; read-out: Glycine EC50): 23 µM
EC50 ([5]; read-out: Stop-Flow Glycine EC50): 83.1 µM
EC50 ([6]; read-out: glycine EC50, ref 51): 24 µM
EC50 ([6]; read-out: glycine EC50, ref 52): 42 µM
EC50 ([6]; read-out: glycine EC50 values in oocytes, variable with maximal current): 20 to 280 µM
EC50 [7]: 28.1 µM
EC50 [8]: 224 µM
Peak Current [2]: 740.6 ± 105.9 nA
EC50 [9]: 220 µM
EC50 [10]: 64.8 µM
EC50 [11]: 160 µM
EC50 [12]: 21.8 µM and ~30 µM
EC50 [13]: 154 µM
EC50 [14]: ~35 µM

CCCCCC/C=C\CCCCCCCCCC(=O)NCC(=O)O [C18-cis-ω7-glycine]
GlyRα1 Potentiation at EC5 (%) [1]: 184.7 ± 41.3 (5) %
nH of glycine dose-response in the presence of lipid [2]: 2.8 ± 0.3 ns
GlyT2 Activity: % Inhibition (1 µM) [3]: 10.5 ± 0.02%
IC50 [3]: > 10000 nM

CCCCCCCCC=CCCCCCCCC(=O)NC(CCSC)C(=O)O [C18-cis-ω9-L-methionine]
GlyRα1 Potentiation at EC5 (%) [1]: 2.2 ± 4.2% and 2.2 ± 4.2 (6) %
nH of glycine dose-response in the presence of lipid [2]: 2.2 ± 0.3 ns
GlyT2 Activity: % Inhibition (1 µM) [3]: 84.9 ± 0.07%
IC50 [3]: 29.2 nM
GlyT2 Activity: Max inhibition (%) [3]: 91.2%
